# In ChEMBL document CHEMBL4257449, “New N-(2-phenyl-4-oxo-1,3-thiazolidin-3-yl)-1,2-benzothiazole-3-carboxamides and acetamides as antimicrobial agents” (2017):
# Columns and labels:
# Penicillium ochrochloron [1] = assay: Antifungal activity against Penicillium ochrochloron ATCC 9112 after 72 hrs by serial dilution method; assay type: functional; details: ATCC 9112, 72 h
# Bacillus cereus [2] = assay: Antibacterial activity against Bacillus cereus after 24 hrs by microdilution method; assay type: functional
# Bacillus cereus [3] = assay: Bactericidal activity against Bacillus cereus incubated for 24 hrs followed by serial sub-cultivation and measured after 24 hrs by microdilution method; assay type: functional
# Micrococcus flavus [4] = assay: Antibacterial activity against Micrococcus flavus ATCC 10240 after 24 hrs by microdilution method; assay type: functional; details: ATCC 10240, 24 h
# Micrococcus flavus [5] = assay: Bactericidal activity against Micrococcus flavus ATCC 10240 incubated for 24 hrs followed by serial sub-cultivation and measured after 24 hrs by microdilution method; assay type: functional
# Staphylococcus aureus [6] = assay: Antibacterial activity against Staphylococcus aureus ATCC 6538 after 24 hrs by microdilution method; assay type: functional; details: ATCC 6538, 24 h
# Staphylococcus aureus [7] = assay: Bactericidal activity against Staphylococcus aureus ATCC 6538 incubated for 24 hrs followed by serial sub-cultivation and measured after 24 hrs by microdilution method; assay type: functional
# Listeria monocytogenes [8] = assay: Antibacterial activity against Listeria monocytogenes NCTC 7973 after 24 hrs by microdilution method; assay type: functional; details: NCTC 7973, 24 h
# Listeria monocytogenes [9] = assay: Bactericidal activity against Listeria monocytogenes NCTC 7973 incubated for 24 hrs followed by serial sub-cultivation and measured after 24 hrs by microdilution method; assay type: functional
# Escherichia coli [10] = assay: Antibacterial activity against Escherichia coli ATCC 35210 after 24 hrs by microdilution method; assay type: functional; details: ATCC 35210, 24 h
# Escherichia coli [11] = assay: Bactericidal activity against Escherichia coli ATCC 35210 incubated for 24 hrs followed by serial sub-cultivation and measured after 24 hrs by microdilution method; assay type: functional
# Enterobacter cloacae [12] = assay: Antibacterial activity against Enterobacter cloacae after 24 hrs by microdilution method; assay type: functional
# Enterobacter cloacae [13] = assay: Bactericidal activity against Enterobacter cloacae incubated for 24 hrs followed by serial sub-cultivation and measured after 24 hrs by microdilution method; assay type: functional
# Pseudomonas aeruginosa [14] = assay: Antibacterial activity against Pseudomonas aeruginosa ATCC 27853 after 24 hrs by microdilution method; assay type: functional; details: ATCC 27853, 24 h
# Pseudomonas aeruginosa [15] = assay: Bactericidal activity against Pseudomonas aeruginosa ATCC 27853 incubated for 24 hrs followed by serial sub-cultivation and measured after 24 hrs by microdilution method; assay type: functional
# Salmonella typhimurium [16] = assay: Antibacterial activity against Salmonella typhimurium ATCC 13311 after 24 hrs by microdilution method; assay type: functional, Salmonella enterica subsp. enterica serovar Typhimurium; details: Salmonella enterica, ATCC 13311, 24 h
# Salmonella typhimurium [17] = assay: Bactericidal activity against Salmonella typhimurium ATCC 13311 incubated for 24 hrs followed by serial sub-cultivation and measured after 24 hrs by microdilution method; assay type: functional, Salmonella enterica subsp. enterica serovar Typhimurium
# Aspergillus versicolor [18] = assay: Antifungal activity against Aspergillus versicolor ATCC 11730 after 72 hrs by serial dilution method; assay type: functional; details: ATCC 11730, 72 h
# Aspergillus fumigatus [19] = assay: Antifungal activity against Aspergillus fumigatus after 72 hrs by serial dilution method; assay type: functional
# Aspergillus fumigatus [20] = assay: Fungicidal activity against Aspergillus fumigatus incubated for 72 hrs followed by serial sub-cultivation for 72 hrs and measured after 72 hrs by serial dilution method; assay type: functional
# Aspergillus versicolor [21] = assay: Fungicidal activity against Aspergillus versicolor ATCC 11730 incubated for 72 hrs followed by serial sub-cultivation for 72 hrs and measured after 72 hrs by serial dilution method; assay type: functional
# Aspergillus ochraceus [22] = assay: Antifungal activity against Aspergillus ochraceus ATCC 12066 after 72 hrs by serial dilution method; assay type: functional; details: ATCC 12066, 72 h
# Aspergillus ochraceus [23] = assay: Fungicidal activity against Aspergillus ochraceus ATCC 12066 incubated for 72 hrs followed by serial sub-cultivation for 72 hrs and measured after 72 hrs by serial dilution method; assay type: functional
# Aspergillus niger [24] = assay: Antifungal activity against Aspergillus niger ATCC 6275 after 72 hrs by serial dilution method; assay type: functional; details: ATCC 6275, 72 h
# Aspergillus niger [25] = assay: Fungicidal activity against Aspergillus niger ATCC 6275 incubated for 72 hrs followed by serial sub-cultivation for 72 hrs and measured after 72 hrs by serial dilution method; assay type: functional
# Trichoderma viride [26] = assay: Antifungal activity against Trichoderma viride IAM 5061 after 72 hrs by serial dilution method; assay type: functional; details: IAM 5061, 72 h
# Trichoderma viride [27] = assay: Fungicidal activity against Trichoderma viride IAM 5061 incubated for 72 hrs followed by serial sub-cultivation for 72 hrs and measured after 72 hrs by serial dilution method; assay type: functional
# Talaromyces funiculosus [28] = assay: Antifungal activity against Penicillium funiculosum ATCC 36839 after 72 hrs by serial dilution method; assay type: functional; details: ATCC 36839, 72 h
# Talaromyces funiculosus [29] = assay: Fungicidal activity against Penicillium funiculosum ATCC 36839 incubated for 72 hrs followed by serial sub-cultivation for 72 hrs and measured after 72 hrs by serial dilution method; assay type: functional
# Penicillium ochrochloron [30] = assay: Fungicidal activity against Penicillium ochrochloron ATCC 9112 incubated for 72 hrs followed by serial sub-cultivation for 72 hrs and measured after 72 hrs by serial dilution method; assay type: functional
# Candida albicans [31] = assay: Antifungal activity against Candida albicans after 72 hrs by serial dilution method; assay type: functional
# Candida albicans [32] = assay: Fungicidal activity against Candida albicans incubated for 72 hrs followed by serial sub-cultivation for 72 hrs and measured after 72 hrs by serial dilution method; assay type: functional
MIC (Penicillium ochrochloron [1]),MIC (Bacillus cereus [2]),MIC (Micrococcus flavus [4]),MIC (Staphylococcus aureus [6]),MIC (Listeria monocytogenes [8]),MIC (Escherichia coli [10]),MIC (Enterobacter cloacae [12]),MIC (Pseudomonas aeruginosa [14]),MIC (Salmonella typhimurium [16]),MIC (Aspergillus versicolor [18]),MIC (Aspergillus fumigatus [19]),SMILES,MBC99.5 (Bacillus cereus [3]),MBC99.5 (Micrococcus flavus [5]),MBC99.5 (Staphylococcus aureus [7]),MBC99.5 (Listeria monocytogenes [9]),MBC99.5 (Escherichia coli [11]),MBC99.5 (Enterobacter cloacae [13]),MBC99.5 (Pseudomonas aeruginosa [15]),MBC99.5 (Salmonella typhimurium [17]),MFC99.5 (Aspergillus fumigatus [20]),also measured
60 µM,120 µM,120 µM,60 µM,240 µM,120 µM,60 µM,240 µM,60 µM,60 µM,240 µM,O=C(N/N=C/c1c(F)cccc1Cl)c1nsc2ccccc12,24 ×10⁻² umol/ml,24 ×10⁻² umol/ml,12 ×10⁻² umol/ml,48 ×10⁻² umol/ml,24 ×10⁻² umol/ml,12 ×10⁻² umol/ml,48 ×10⁻² umol/ml,12 ×10⁻² umol/ml,30 ×10⁻² umol/ml,MFC99.5 (Aspergillus versicolor [21]): 12 ×10⁻² umol/ml; MIC (Aspergillus ochraceus [22]): 60 µM; MFC99.5 (Aspergillus ochraceus [23]): 12 ×10⁻² umol/ml; MIC (Aspergillus niger [24]): 60 µM; MFC99.5 (Aspergillus niger [25]): 12 ×10⁻² umol/ml; MIC (Trichoderma viride [26]): 240 µM; MFC99.5 (Trichoderma viride [27]): 48 ×10⁻² umol/ml; MIC (Talaromyces funiculosus [28]): 30 µM; MFC99.5 (Talaromyces funiculosus [29]): 6 ×10⁻² umol/ml; MFC99.5 (Penicillium ochrochloron [30]): 12 ×10⁻² umol/ml; MIC (Candida albicans [31]): 240 µM; MFC99.5 (Candida albicans [32]): 30 ×10⁻² umol/ml
181 µM,116 µM,116 µM,29 µM,116 µM,116 µM,116 µM,116 µM,116 µM,91 µM,482 µM,O=C(Cc1nsc2ccccc12)N/N=C/c1c(F)cccc1F,23.2 ×10⁻² umol/ml,23.2 ×10⁻² umol/ml,23.2 ×10⁻² umol/ml,23.2 ×10⁻² umol/ml,23.2 ×10⁻² umol/ml,23.2 ×10⁻² umol/ml,23.2 ×10⁻² umol/ml,23.2 ×10⁻² umol/ml,96.4 ×10⁻² umol/ml,MFC99.5 (Aspergillus versicolor [21]): 12.1 ×10⁻² umol/ml; MIC (Aspergillus ochraceus [22]): 121 µM; MFC99.5 (Aspergillus ochraceus [23]): 24.1 ×10⁻² umol/ml; MIC (Aspergillus niger [24]): 121 µM; MFC99.5 (Aspergillus niger [25]): 24.1 ×10⁻² umol/ml; MIC (Trichoderma viride [26]): 61 µM; MFC99.5 (Trichoderma viride [27]): 12.1 ×10⁻² umol/ml; MIC (Talaromyces funiculosus [28]): 91 µM; MFC99.5 (Talaromyces funiculosus [29]): 12.1 ×10⁻² umol/ml; MFC99.5 (Penicillium ochrochloron [30]): 24.1 ×10⁻² umol/ml; MIC (Candida albicans [31]): 121 µM; MFC99.5 (Candida albicans [32]): 24.1 ×10⁻² umol/ml
232 µM,116 µM,116 µM,58 µM,232 µM,116 µM,116 µM,232 µM,116 µM,464 µM,232 µM,O=C(N/N=C/c1c(Cl)cccc1Cl)c1nsc2ccccc12,23.2 ×10⁻² umol/ml,23.2 ×10⁻² umol/ml,17.6 ×10⁻² umol/ml,46.4 ×10⁻² umol/ml,23.2 ×10⁻² umol/ml,23.2 ×10⁻² umol/ml,46.4 ×10⁻² umol/ml,23.2 ×10⁻² umol/ml,46.4 ×10⁻² umol/ml,MFC99.5 (Aspergillus versicolor [21]): 58 ×10⁻² umol/ml; MIC (Aspergillus ochraceus [22]): 232 µM; MFC99.5 (Aspergillus ochraceus [23]): 46.4 ×10⁻² umol/ml; MIC (Aspergillus niger [24]): 464 µM; MFC99.5 (Aspergillus niger [25]): 58 ×10⁻² umol/ml; MIC (Trichoderma viride [26]): 116 µM; MFC99.5 (Trichoderma viride [27]): 46.4 ×10⁻² umol/ml; MIC (Talaromyces funiculosus [28]): 464 µM; MFC99.5 (Talaromyces funiculosus [29]): 58 ×10⁻² umol/ml; MFC99.5 (Penicillium ochrochloron [30]): 46.4 ×10⁻² umol/ml; MIC (Candida albicans [31]): 232 µM; MFC99.5 (Candida albicans [32]): 46.4 ×10⁻² umol/ml
126 µM,126 µM,252 µM,126 µM,252 µM,252 µM,63 µM,252 µM,31.5 µM,15.8 µM,15.8 µM,O=C(N/N=C/c1c(F)cccc1F)c1nsc2ccccc12,25.2 ×10⁻² umol/ml,50.4 ×10⁻² umol/ml,25.2 ×10⁻² umol/ml,50.4 ×10⁻² umol/ml,50.4 ×10⁻² umol/ml,25.2 ×10⁻² umol/ml,50.4 ×10⁻² umol/ml,6.3 ×10⁻² umol/ml,25.2 ×10⁻² umol/ml,MFC99.5 (Aspergillus versicolor [21]): 12.6 ×10⁻² umol/ml; MIC (Aspergillus ochraceus [22]): 15.8 µM; MFC99.5 (Aspergillus ochraceus [23]): 12.6 ×10⁻² umol/ml; MIC (Aspergillus niger [24]): 252 µM; MFC99.5 (Aspergillus niger [25]): 50.4 ×10⁻² umol/ml; MIC (Trichoderma viride [26]): 126 µM; MFC99.5 (Trichoderma viride [27]): 25.2 ×10⁻² umol/ml; MIC (Talaromyces funiculosus [28]): 31.5 µM; MFC99.5 (Talaromyces funiculosus [29]): 12.6 ×10⁻² umol/ml; MFC99.5 (Penicillium ochrochloron [30]): 25.2 ×10⁻² umol/ml; MIC (Candida albicans [31]): 252 µM; MFC99.5 (Candida albicans [32]): 50.4 ×10⁻² umol/ml
